Drawing on patent US20150175599A1, “FAAH Inhibitors” (Ironwood Pharmaceuticals, Inc., priority 2010, published 2015), this text covers IC50 for 18 molecules.

In one assay the target is T1, human FAAH-1 (Homo sapiens, UniProt O00519).
T1 sequence (O00519 1-579): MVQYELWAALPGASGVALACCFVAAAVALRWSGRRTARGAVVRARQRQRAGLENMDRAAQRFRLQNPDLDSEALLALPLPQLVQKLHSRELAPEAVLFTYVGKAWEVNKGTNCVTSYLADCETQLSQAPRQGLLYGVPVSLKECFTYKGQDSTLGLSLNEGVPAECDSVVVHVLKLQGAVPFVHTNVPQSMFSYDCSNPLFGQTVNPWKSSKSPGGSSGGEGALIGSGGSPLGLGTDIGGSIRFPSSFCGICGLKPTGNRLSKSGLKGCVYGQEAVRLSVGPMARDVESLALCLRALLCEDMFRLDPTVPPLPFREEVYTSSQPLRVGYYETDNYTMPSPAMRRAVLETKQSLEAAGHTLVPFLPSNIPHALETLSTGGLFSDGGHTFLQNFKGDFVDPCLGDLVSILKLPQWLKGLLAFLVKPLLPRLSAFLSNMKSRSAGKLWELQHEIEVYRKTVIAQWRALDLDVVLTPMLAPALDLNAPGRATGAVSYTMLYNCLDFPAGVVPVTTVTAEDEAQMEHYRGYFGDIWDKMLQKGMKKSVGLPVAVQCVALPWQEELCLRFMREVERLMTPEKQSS
Put plainly: Whole cell anandamide hydrolysis assay (HeLa clone 5c5 transfected with human FAAH-1). Type of assay: cell-based. As to conditions: HeLa clone 5c5 expressing human FAAH-1; read-out: human FAAH whole cell IC50. How it is done: FAAH activity was assayed in whole cells using methods disclosed previously (Maccarone et al., 1998 J Biol. Chem. 273:32332 and Bisogno et al., 1997 J Biol. Chem. 272:3315). In addition to the cell lines described in Maccarone et al. and Bisogno et al., MCF7 (ATCC designation HTB-22) and T84 (ATCC designation CCL-248) cell lines were also used in these assays.
cDNA expression clone for human FAAH-1 (in pcDNA3 vector) (Genbank Accession U82535; obtained from Benjamin Cravatt, Scripps Research Institute, La Jolla, Calif.) was linearized by digestion with BglII (New England Biolabs) and transfected by calcium phosphate into human HeLa cells (ATCC catalog #CCL-2). […] Following transfection, a stable HeLa-derived clone, designated 5c5, was isolated by single colony purification and expanded and maintained in modified Eagles medium (MEM; VWR catalog #45000-300) containing 10% fetal bovine serum (FBS), 2 mM L-glutamine, and 0.5 mg/mL G-418 (Sigma catalog #G5013).
Clone 5c5 (50,000 cells in 150 μL) was seeded into 96-well plates and incubated overnight (5% CO2, 37° C.). Media was carefully replaced with 180 μL DMEM/F12 medium (VWR catalog #45000-350) containing 15 mM HEPES, pH 7.4 and 0.1% fatty acid free BSA (Sigma catalog #A0281). Then, 2 μL of 100× desired final concentrations of certain exemplary compounds described herein were made up in DMSO, added to wells containing cells, and plates were incubated at 37° C. for 10 min. Next, 20 μL of 5 μM anandamide (Cayman catalog #90050) spiked with 8 μCi of anandamide-(ethanolamine-1-[^3H]) (American Radiolabeled Chemicals, Inc., catalog #ART 626) was added to the cells and the plates were incubated for an additional 15 min at 37° C. The reactions were terminated by chilling the plates on ice and adding 20 μL of 0.5M of potassium phosphate buffer (adjusted to pH 2.1 with phosphoric acid).
The acidified reactions were transferred to 96-well filter plates (0.25 mL capacity/well, 1.2 micron glass fiber pre-filter packed above 0.65 micron pore-size PVDF membrane, Millipore catalog MSFCN6B50) containing 25 μL charcoal (neutral activated carbon, Fisher Scientific catalog C170-500) per well. Prior to the assay, charcoal was measured and loaded onto the plate using an aluminum 96-well column loading device (Millipore catalog MACL09625). The filter plate was assembled over an empty 96-well plate (Costar) using a centrifuge alignment frame (Millipore catalog MACF09604) to allow for collection of the filtrate in the receiver plate. The charcoal glass-fiber filter plates were pre-washed with methanol by centrifugation 650×g for 10 min). Next, 80 μL of water was added to the wells of the pre-washed 96 well charcoal filter plate. Then, 90 μL of the acidified reaction mixture was added to the water in the wells of the charcoal plate. The samples were centrifuged as above. The substrate remained bound to the charcoal, whereas the [^3H]-ethanolamine product formed flowed through and was transferred to the microplates containing scintillation cocktail and quantified in a micro-plate scintillation counter (Perkin-Elmer Microbeta). Control reactions with either no cells or cells treated with DMSO alone were performed in triplicate and used to define background (no cells) and 100% activity (DMSO alone).
Following subtraction of background radioactivity, data were expressed as percent inhibition relative to 100% activity and fit with a nonlinear regression curve using GraphPad Prism Software (GraphPad Software Inc). IC50 values were calculated from the resulting dose-response curves constrained at top and bottom to 100% and 0%, respectively.

Another assay has as its target T2, FAAH (Homo sapiens, UniProt O00519).
T2 construct: Reactions were initiated by adding 12.5 μg of brain microsome; tissue ABS, Inc; host or cells: human brain cerebral cortex, membrane/microsome fraction pooled from 3 donors
T2 sequence (O00519 1-579): T1 sequence (O00519 1-579)
Description: FAAH inhibition, human brain membrane homogenate assay. The format is biochemical. As to conditions: human brain homogenate; average activity; read-out: Human brain Extract FAAH IC50.

Structures are written as SMILES.

By IC50 is commonly meant the concentration that inhibits the measured activity by half. In the case of `COc1cc(NC(=O)C(=O)c2c(C)n(Cc3ccc(Cl)cc3)c3cc(OC)c(OC)cc23)ccn1` [Compound 44, 2-(1-(4-chlorobenzyl)-5,6-dimethoxy-2-methyl-1H-indol-3-yl)-N-(2-methoxypyridin-4-yl)-2-oxoacetamide], the IC50 at human FAAH-1 and on FAAH was < 100 nM in each case.

As to `COc1cc(NC(=O)C(=O)c2c(C)n(Cc3ccc(Cl)cn3)c3cc(F)c(OC)cc23)ccn1` [Compound 64, 2-(1-((5-chloropyridin-2-yl)methyl)-6-fluoro-5-methoxy-2-methyl-1H-indol-3-yl)-N-(2-methoxypyridin-4-yl)-2-oxoacetamide], the IC50 on human FAAH-1 and on FAAH was < 100 nM each time.

With `COc1cnc2c(c1)c(C(=O)C(=O)Nc1ccnc(OC)c1)c(C)n2Cc1ncc(Cl)cc1Cl` [Compound 29, 2-(1-((3,5-dichloropyridin-2-yl)methyl)-5-methoxy-2-methyl-1H-pyrrolo[2,3-b]pyridin-3-yl)-N-(2-methoxypyridin-4-yl)-2-oxoacetamide], the IC50 at human FAAH-1 and on FAAH was < 100 nM in each case.

Regarding `COc1cnc2c(c1)c(C(=O)C(=O)Nc1ccnc(OC)c1)c(C)n2Cc1ccc(Cl)cn1` [Compound 41, 2-(1-((5-chloropyridin-2-yl)methyl)-5-methoxy-2-methyl-1H-pyrrolo[2,3-b]pyridin-3-yl)-N-(2-methoxypyridin-4-yl)-2-oxoacetamide], the IC50 on human FAAH-1 and on FAAH was < 100 nM in each case.

With `COc1ccc(Cn2c(C)c(C(=O)C(=O)Nc3ccnc(OC)c3)c3cc(OC)cnc32)nc1` [Compound 40, 2-(5-methoxy-1-((5-methoxypyridin-2-yl)methyl)-2-methyl-1H-pyrrolo[2,3-b]pyridin-3-yl)-N-(2-methoxypyridin-4-yl)-2-oxoacetamide], the half-maximal inhibitory concentration (IC50) on human FAAH-1 and at FAAH was < 100 nM throughout.

Take `COc1cc(NC(=O)C(=O)c2c(C)n(Cc3ccc(Cl)cc3)c3ccc(N)cc23)ccn1` [Compound 20, 2-(5-amino-1-(4-chlorobenzyl)-2-methyl-1H-indol-3-yl)-N-(2-methoxypyridin-4-yl)-2-oxoacetamide]: the IC50 on human FAAH-1 and at FAAH was < 100 nM throughout.

On to `COc1cnc2c(c1)c(C(=O)C(=O)Nc1ccnc(OC)c1)c(C)n2Cc1ccc(Cl)cc1Cl` [Compound 42, 2-(1-(2,4-dichlorobenzyl)-5-methoxy-2-methyl-1H-pyrrolo[2,3-b]pyridin-3-yl)-N-(2-methoxypyridin-4-yl)-2-oxoacetamide], for which the IC50 at human FAAH-1 and on FAAH was < 100 nM each time.

`COc1cc(NC(=O)C(=O)c2c(C)n(Cc3ccc(Cl)cn3)c3ccc(C)cc23)ccn1` [Compound 61, 2-(1-((5-chloropyridin-2-yl)methyl)-2,5-dimethyl-1H-indol-3-yl)-N-(2-methoxypyridin-4-yl)-2-oxoacetamide]: the IC50 on human FAAH-1 and on FAAH was < 100 nM in each case.

Consider `C=Cc1ccc2c(c1)c(C(=O)C(=O)Nc1ccnc(OC)c1)c(C)n2Cc1ccc(Cl)cc1` [Compound 27, 2-(1-(4-chlorobenzyl)-2-methyl-5-vinyl-1H-indol-3-yl)-N-(2-methoxypyridin-4-yl)-2-oxoacetamide], for which the IC50 at human FAAH-1 and at FAAH was < 100 nM in each case.

As for `COc1cc(NC(=O)C(=O)c2c(C)n(Cc3ccc(Cl)cn3)c3ccc([N+](=O)[O-])cc23)ccn1` [Compound 62, 2-(1-((5-chloropyridin-2-yl)methyl)-2-methyl-5-nitro-1H-indol-3-yl)-N-(2-methoxypyridin-4-yl)-2-oxoacetamide], the IC50 at human FAAH-1 and at FAAH was < 100 nM each time.

In the case of `COc1cc(NC(=O)C(=O)c2c(C)n(Cc3ccc(Cl)cc3)c3ccncc23)ccn1` [Compound 37, 2-(1-(4-chlorobenzyl)-2-methyl-1H-pyrrolo[3,2-c]pyridin-3-yl)-N-(2-methoxypyridin-4-yl)-2-oxoacetamide], the IC50 at human FAAH-1 and on FAAH was < 100 nM throughout.

`COc1cc(NC(=O)C(=O)c2c(C)n(Cc3ccc(Cl)cc3)c3ccc(NC(C)=O)cc23)ccn1` [Compound 22, 2-(5-acetamido-1-(4-chlorobenzyl)-2-methyl-1H-indol-3-yl)-N-(2-methoxypyridin-4-yl)-2-oxoacetamide]: the IC50 at human FAAH-1 and on FAAH was < 100 nM throughout.

Take `COc1cc(NC(=O)C(=O)c2c(C)n(Cc3ccc(Cl)cc3)c3ncc(C)cc23)ccn1` [Compound 76, 2-(1-(4-chlorobenzyl)-2,5-dimethyl-1H-pyrrolo[2,3-b]pyridin-3-yl)-N-(2-methoxypyridin-4-yl)-2-oxoacetamide]: the IC50 at human FAAH-1 and at FAAH was < 100 nM each time.

On to `COc1ccc2c(c1)c(C(=O)C(=O)Nc1ccnc(OC)c1)c(C)n2Cc1cnc(Cl)cn1` [Compound 12, 2-(1-((5-chloropyrazin-2-yl)methyl)-5-methoxy-2-methyl-1H-indol-3-yl)-N-(2-methoxypyridin-4-yl)-2-oxoacetamide], for which the IC50 at human FAAH-1 and on FAAH was < 100 nM in each case.

For `COc1cc(NC(=O)C(=O)c2c(C)n(Cc3ccc(Cl)cc3)c3ccc(Br)cc23)ccn1` [Compound 18, 2-(5-bromo-1-(4-chlorobenzyl)-2-methyl-1H-indol-3-yl)-N-(2-methoxypyridin-4-yl)-2-oxoacetamide], the IC50 on human FAAH-1 and at FAAH was < 100 nM each time.

In the case of `COc1cc(NC(=O)C(=O)c2c(C)n(Cc3ncc(Cl)cc3F)c3cc(F)c(OC)cc23)ccn1` [Compound 99, 2-(1-((5-chloro-3-fluoropyridin-2-yl)methyl)-6-fluoro-5-methoxy-2-methyl-1H-indol-3-yl)-N-(2-methoxypyridin-4-yl)-2-oxoacetamide], the IC50 on human FAAH-1 and on FAAH was < 100 nM each time.

Regarding `COc1cc(NC(=O)C(=O)c2c(C)n(Cc3ccc(Cl)cn3)c3cc(C)c(OC)cc23)ccn1` [Compound 95, 2-(1-((5-chloropyridin-2-yl)methyl)-5-methoxy-2,6-dimethyl-1H-indol-3-yl)-N-(2-methoxypyridin-4-yl)-2-oxoacetamide], the IC50 on human FAAH-1 and on FAAH was < 100 nM throughout.

Turning to `CCN(CC)c1ccc2c(c1)c(C(=O)C(=O)Nc1ccnc(OC)c1)c(C)n2Cc1ccc(Cl)cc1` [Compound 24, 2-(1-(4-chlorobenzyl)-5-(diethylamino)-2-methyl-1H-indol-3-yl)-N-(2-methoxypyridin-4-yl)-2-oxoacetamide], the figures for the IC50 on human FAAH-1 and at FAAH were 100 to 1000 nM and 1000 to 10000 nM, respectively.
